# Assay results reported in patent US7297353B2, “Use of anemonin for treating aseptic inflammations” (priority 2000, dated 2007).
# Tested on: injured skin
# Assay: Effect of anemonin on the injured skin in mice (visual irritation score)
# Format: in vivo, ICR mice
# Design: Irritation Score: scale not given here
# Experimental: ICR mice were utilized for the studies. The dorsal hair of mice was cut and injured 24 hour before experiment. 25% ethanol (0.5 ml) and the liniment solution of anemonin (0.05, 0.5, 5 mg/ml, 0.5 ml) were coated 4 h a day for 7 days on the area of hairless which was 2×2 cm^2 per mice. The skin irritation was evaluated by visual scoring (Table C-3 and C-4) everyday. The mice were continuously observed for 7 days after stopping applying. […] The injured skin of application 0.5 mg/ml anemonin also healed up within 7 days.
# [1] = 0.05 mg/ml on injured skin, Day 1, Treatment
# [2] = 0.05 mg/ml on injured skin, Day 2, Treatment
# [3] = 0.05 mg/ml on injured skin, Day 3, Treatment
# [4] = 0.05 mg/ml on injured skin, Day 4, Treatment
# [5] = 0.05 mg/ml on injured skin, Day 5, Treatment
# [6] = 0.05 mg/ml on injured skin, Day 6, Treatment
# [7] = 0.05 mg/ml on injured skin, Day 7, Treatment
# [8] = 0.05 mg/ml on injured skin, Day 8, Observation
# [9] = 0.05 mg/ml on injured skin, Day 9, Observation
# [10] = 0.05 mg/ml on injured skin, Day 10, Observation
# [11] = 0.05 mg/ml on injured skin, Day 11, Observation
# [12] = 0.05 mg/ml on injured skin, Day 12, Observation
# [13] = 0.05 mg/ml on injured skin, Day 13, Observation
# [14] = 0.05 mg/ml on injured skin, Day 14, Observation
# [15] = 0.5 mg/ml on injured skin, Day 1, Treatment
# [16] = 0.5 mg/ml on injured skin, Day 2, Treatment
# [17] = 0.5 mg/ml on injured skin, Day 3, Treatment
# [18] = 0.5 mg/ml on injured skin, Day 4, Treatment
# [19] = 0.5 mg/ml on injured skin, Day 5, Treatment
# [20] = 0.5 mg/ml on injured skin, Day 6, Treatment
# [21] = 0.5 mg/ml on injured skin, Day 7, Treatment
# [22] = 0.5 mg/ml on injured skin, Day 8, Observation
# [23] = 0.5 mg/ml on injured skin, Day 9, Observation
# [24] = 0.5 mg/ml on injured skin, Day 10, Observation
# [25] = 0.5 mg/ml on injured skin, Day 11, Observation
# [26] = 0.5 mg/ml on injured skin, Day 12, Observation
# [27] = 0.5 mg/ml on injured skin, Day 13, Observation
# [28] = 0.5 mg/ml on injured skin, Day 14, Observation
# [29] = 5 mg/ml on injured skin, Day 2, Treatment
# [30] = 5 mg/ml on injured skin, Day 3, Treatment
# [31] = 5 mg/ml on injured skin, Day 4, Treatment
# [32] = 5 mg/ml on injured skin, Day 5, Treatment
# [33] = 5 mg/ml on injured skin, Day 6, Treatment
# [34] = 5 mg/ml on injured skin, Day 7, Treatment
# [35] = 5 mg/ml on injured skin, Day 8, Observation
# [36] = 5 mg/ml on injured skin, Day 9, Observation
# [37] = 5 mg/ml on injured skin, Day 10, Observation
# [38] = 5 mg/ml on injured skin, Day 11, Observation
# [39] = 5 mg/ml on injured skin, Day 12, Observation
# [40] = 5 mg/ml on injured skin, Day 13, Observation
# [41] = 5 mg/ml on injured skin, Day 14, Observation
structure (smiles),measurement,setting,value
"O=C1C=CC2(CCC23C=CC(=O)O3)O1 (stereo not drawn) [Anemonin, anemonin]",Irritation Grade,[1],No (No irritation <0.5)
same,Irritation Score,[1],0
same,Irritation Grade,[2],No (No irritation <0.5)
same,Irritation Score,[2],0
same,Irritation Grade,[3],No (No irritation <0.5)
same,Irritation Score,[3],0
same,Irritation Grade,[4],No (No irritation <0.5)
same,Irritation Score,[4],0
same,Irritation Grade,[5],No (No irritation <0.5)
same,Irritation Score,[5],0
same,Irritation Grade,[6],No (No irritation <0.5)
same,Irritation Score,[6],0
same,Irritation Grade,[7],No (No irritation <0.5)
same,Irritation Score,[7],0
same,Irritation Grade,[8],No (No irritation <0.5)
same,Irritation Score,[8],0
same,Irritation Grade,[9],No (No irritation <0.5)
same,Irritation Score,[9],0
same,Irritation Grade,[10],No (No irritation <0.5)
same,Irritation Score,[10],0
same,Irritation Grade,[11],No (No irritation <0.5)
same,Irritation Score,[11],0
same,Irritation Grade,[12],No (No irritation <0.5)
same,Irritation Score,[12],0
same,Irritation Grade,[13],No (No irritation <0.5)
same,Irritation Score,[13],0
same,Irritation Grade,[14],No (No irritation <0.5)
same,Irritation Score,[14],0
same,Irritation Grade,[15],Mild (Mide irritation <2.09)
same,Irritation Score,[15],1
same,Irritation Grade,[16],No (No irritation <0.5)
same,Irritation Score,[16],0.25
same,Irritation Grade,[17],No (No irritation <0.5)
same,Irritation Score,[17],0.25
same,Irritation Grade,[18],No (No irritation <0.5)
same,Irritation Score,[18],0.25
same,Irritation Grade,[19],No (No irritation <0.5)
same,Irritation Score,[19],0.125
same,Irritation Grade,[20],No (No irritation <0.5)
same,Irritation Score,[20],0
same,Irritation Grade,[21],No (No irritation <0.5)
same,Irritation Score,[21],0
same,Irritation Grade,[22],No (No irritation <0.5)
same,Irritation Score,[22],0
same,Irritation Grade,[23],No (No irritation <0.5)
same,Irritation Score,[23],0
same,Irritation Grade,[24],No (No irritation <0.5)
same,Irritation Score,[24],0
same,Irritation Grade,[25],No (No irritation <0.5)
same,Irritation Score,[25],0
same,Irritation Grade,[26],No (No irritation <0.5)
same,Irritation Score,[26],0
same,Irritation Grade,[27],No (No irritation <0.5)
same,Irritation Score,[27],0
same,Irritation Grade,[28],No (No irritation <0.5)
same,Irritation Score,[28],0
same,Irritation Grade,"5 mg/ml on injured skin, Day 1, Treatment",Moderate (Moderate irritation <6.0)
same,Irritation Grade,[29],Moderate (Moderate irritation <6.0)
same,Irritation Score,[29],3.4
same,Irritation Grade,[30],Moderate (Moderate irritation <6.0)
same,Irritation Score,[30],3.3
same,Irritation Grade,[31],Moderate (Moderate irritation <6.0)
same,Irritation Score,[31],3.3
same,Irritation Grade,[32],Moderate (Moderate irritation <6.0)
same,Irritation Score,[32],3.3
same,Irritation Grade,[33],Moderate (Moderate irritation <6.0)
same,Irritation Score,[33],4
same,Irritation Grade,[34],Moderate (Moderate irritation <6.0)
same,Irritation Score,[34],4
same,Irritation Grade,[35],Moderate (Moderate irritation <6.0)
same,Irritation Score,[35],4
same,Irritation Grade,[36],Moderate (Moderate irritation <6.0)
same,Irritation Score,[36],4
same,Irritation Grade,[37],Moderate (Moderate irritation <6.0)
same,Irritation Score,[37],3.5
same,Irritation Grade,[38],Moderate (Moderate irritation <6.0)
same,Irritation Score,[38],3
same,Irritation Grade,[39],Moderate (Moderate irritation <6.0)
same,Irritation Score,[39],2.5
same,Irritation Grade,[40],Mild (Mide irritation <2.09)
same,Irritation Score,[40],2
same,Irritation Grade,[41],Mild (Mide irritation <2.09)
same,Irritation Score,[41],2
same,Irritation Score,"5 mg/ml, 0.5 ml, 4 h a day for 7 days on injured skin, Day 1, Treatment",3.1
same,irritation on injured skin,application of 0.05 mg/ml,did not cause any irritation
same,irritation on injured skin,"application of 0.5 mg/ml, after 24 h application, then began to alleviate",slight erythema
same,irritation on injured skin,application of 5 mg/ml,mild to moderate erythema
